Legend:
Format in all cases: in vivo
[1] = system: johnsongrass (Sorghum halepense); assay: Test C preemergence; conditions: Sorghum halepense, pre-emergence, 336 h, scale 0 to 100, read-out: Plant response rating, Johnsongrass
Procedure, shortened: (§1)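 Seeds sown in a loam soil and sand blend were treated preemergence; plants in peat-moss/vermiculite medium were sprayed at the 1- to 4-leaf stage (2-18 cm). Chemicals were in a non-phytotoxic surfactant-containing solvent. After 13 to 15 days in a greenhouse, injury was visually rated against controls on a 0-100 scale.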

[2] = system: morningglory (Ipomoea coccinea); assay: Test C preemergence; conditions: Ipomoea, pre-emergence, 336 h, scale 0 to 100, read-out: Plant response rating, Morningglory
Procedure, shortened: as §1

[3] = system: pigweed (Amaranthus retroflexus); assay: Test C preemergence; conditions: Amaranthus retroflexus, pre-emergence, 336 h, scale 0 to 100, read-out: Plant response rating, Pigweed
Procedure, shortened: as §1

[4] = system: barnyardgrass (Echinochloa crus-galli); assay: Test C postemergence; conditions: Echinochloa crus-galli, post-emergence, Postemergence, scale 0 to 100, read-out: Plant response rating, Barnyardgrass
Procedure, shortened: as §1

[5] = system: blackgrass (Alopecurus myosuroides); assay: Test C postemergence; conditions: Alopecurus myosuroides, post-emergence, 336 h, Postemergence, scale 0 to 100, read-out: Plant response rating, Blackgrass
Procedure, shortened: as §1

[6] = system: chickweed (common chickweed, Stellaria media); assay: Test C postemergence; conditions: Stellaria media, post-emergence, Postemergence, scale 0 to 100, read-out: Plant response rating, Chickweed
Procedure, shortened: as §1

corn (Zea mays) = assay: Test C postemergence; conditions: Zea mays, post-emergence, 336 h, Postemergence, scale 0 to 100
Procedure, shortened: as §1

[7] = system: galium (catchweed bedstraw, Galium aparine); assay: Test C postemergence; conditions: Galium, post-emergence, 336 h, Postemergence, scale 0 to 100, read-out: Plant response rating, Galium
Procedure, shortened: as §1

[8] = system: giant foxtail (Setaria faberii); assay: Test C postemergence; conditions: Setaria faberi, post-emergence, 336 h, Postemergence, scale 0 to 100, read-out: Plant response rating, Foxtail, Giant
Procedure, shortened: as §1

[9] = system: johnsongrass (Sorghum halepense); assay: Test C postemergence; conditions: Sorghum halepense, post-emergence, 336 h, Postemergence, scale 0 to 100, read-out: Plant response rating, Johnsongrass
Procedure, shortened: as §1

kochia (Kochia scoparia) = assay: Test C postemergence; conditions: Bassia scoparia, post-emergence, Postemergence, scale 0 to 100, read-out: Plant response rating, Kochia
Procedure, shortened: as §1

[10] = system: lambsquarters (Chenopodium album); assay: Test C postemergence; conditions: Chenopodium album, post-emergence, 336 h, Postemergence, scale 0 to 100, read-out: Plant response rating, Lambsquarters
Procedure, shortened: as §1

[11] = system: large (Lg) crabgrass (Digitaria sanguinalis); assay: Test C postemergence; conditions: Digitaria sanguinalis, post-emergence, 336 h, Postemergence, scale 0 to 100, read-out: Plant response rating, Crabgrass, Large
Procedure, shortened: as §1

[12] = system: morningglory (Ipomoea coccinea); assay: Test C postemergence; conditions: Ipomoea, post-emergence, 336 h, Postemergence, scale 0 to 100, read-out: Plant response rating, Morningglory
Procedure, shortened: as §1

[13] = system: oilseed rape (Brassica napus); assay: Test C postemergence; conditions: Brassica napus, post-emergence, Postemergence, scale 0 to 100, read-out: Plant response rating, Oilseed Rape
Procedure, shortened: as §1

[14] = system: pigweed (Amaranthus retroflexus); assay: Test C postemergence; conditions: Amaranthus retroflexus, post-emergence, 336 h, Postemergence, scale 0 to 100, read-out: Plant response rating, Pigweed
Procedure, shortened: as §1

[15] = system: ragweed (common ragweed, Ambrosia elatior); assay: Test C postemergence; conditions: Ambrosia artemisiifolia, post-emergence, 336 h, Postemergence, scale 0 to 100, read-out: Plant response rating, Ragweed
Procedure, shortened: as §1

soybean (Glycine max) = assay: Test C postemergence; conditions: Glycine max, post-emergence, Postemergence, scale 0 to 100, read-out: Plant response rating, Soybean
Procedure, shortened: as §1

[16] = system: velvetleaf (Abutilon theophrasti); assay: Test C postemergence; conditions: Abutilon theophrasti, post-emergence, Postemergence, scale 0 to 100, read-out: Plant response rating, Velvetleaf
Procedure, shortened: as §1

[17] = system: waterhemp (common waterhemp, Amaranthus rudis); assay: Test C postemergence; conditions: Amaranthus tuberculatus, post-emergence, Postemergence, scale 0 to 100, read-out: Plant response rating, Waterhemp
Procedure, shortened: as §1

[18] = system: winter wheat (Triticum aestivum); assay: Test C postemergence; conditions: Triticum aestivum, post-emergence, 336 h, Postemergence, scale 0 to 100, read-out: Plant response rating, Wheat
Procedure, shortened: as §1

[19] = system: yellow nutsedge (Cyperus esculentus); assay: Test C postemergence; conditions: Cyperus, post-emergence, 336 h, Postemergence, scale 0 to 100, read-out: Plant response rating, Nutsedge, Yellow
Procedure, shortened: as §1

For Fc1ccc(F)c(Oc2ncc(Cl)cn2)c1Oc1ncc(Cl)cn1 [Compound 34, 2,2′-[(3,6-difluoro-1,2-phenylene)bis(oxy)]bis[5-chloropyrimidine]], the pest or weed control at 31 g/ha ([1]; 31 g ai/ha, preemergence) was 55%, the pest or weed control at 62 g/ha ([1]; 62 g ai/ha, preemergence) was 75% and the pest or weed control at 125 g/ha ([1]; 125 g ai/ha, preemergence) was 98%. It also gave a pest or weed control at 16 g/ha ([1]; Preemergence, 16 g ai/ha) of 50%, a pest or weed control at 31 g/ha ([2]; 31 g ai/ha, preemergence) of 20% and a pest or weed control at 62 g/ha ([2]; 62 g ai/ha, preemergence) of 60%. For the same molecule, the pest or weed control at 125 g/ha ([2]; 125 g ai/ha, preemergence) was 90%, the pest or weed control at 16 g/ha ([2]; Preemergence, 16 g ai/ha) was 0% and the pest or weed control at 31 g/ha ([3]; 31 g ai/ha, preemergence) was 100%. It also gave a pest or weed control at 62 g/ha ([3]; 62 g ai/ha, preemergence) of 100%, a pest or weed control at 125 g/ha ([3]; 125 g ai/ha, preemergence) of 100% and a pest or weed control at 16 g/ha ([3]; Preemergence, 16 g ai/ha) of 100%. For the same molecule, the pest or weed control at 16 g/ha ([4]; 16 g ai/ha) was 5%, the pest or weed control at 31 g/ha ([4]; 31 g ai/ha) was 5% and the pest or weed control at 62 g/ha ([4]; 62 g ai/ha) was 10%. The pest or weed control at 125 g/ha ([4]; 125 g ai/ha) was 10%, the pest or weed control at 16 g/ha ([5]; 16 g ai/ha) was 0% and the pest or weed control at 31 g/ha ([5]; 31 g ai/ha) was 0%. For the same molecule, the pest or weed control at 62 g/ha ([5]; 62 g ai/ha) was 0%, the pest or weed control at 125 g/ha ([5]; 125 g ai/ha) was 5% and the pest or weed control at 16 g/ha ([6]; 16 g ai/ha) was 50%. The pest or weed control at 31 g/ha ([6]; 31 g ai/ha) was 50%, the pest or weed control at 62 g/ha ([6]; 62 g ai/ha) was 80% and the pest or weed control at 125 g/ha ([6]; 125 g ai/ha) was 95%. The Corn plant response rating (crop injury, 0 = no effect, 100 = complete kill) at 16 g/ha (corn (Zea mays); 16 g ai/ha) was 5%, the Corn plant response rating (crop injury, 0 = no effect, 100 = complete kill) at 31 g/ha (corn (Zea mays); 31 g ai/ha) was 5% and the Corn plant response rating (crop injury, 0 = no effect, 100 = complete kill) at 62 g/ha (corn (Zea mays); 62 g ai/ha) was 5%. The Corn plant response rating (crop injury, 0 = no effect, 100 = complete kill) at 125 g/ha (corn (Zea mays); 125 g ai/ha) was 5%, the pest or weed control at 16 g/ha ([7]; 16 g ai/ha) was 80% and the pest or weed control at 31 g/ha ([7]; 31 g ai/ha) was 80%. The pest or weed control at 62 g/ha ([7]; 62 g ai/ha) was 85%, the pest or weed control at 125 g/ha ([7]; 125 g ai/ha) was 85% and the pest or weed control at 16 g/ha ([8]; 16 g ai/ha) was 5%. For the same molecule, the pest or weed control at 31 g/ha ([8]; 31 g ai/ha) was 5%, the pest or weed control at 62 g/ha ([8]; 62 g ai/ha) was 5% and the pest or weed control at 125 g/ha ([8]; 125 g ai/ha) was 25%. For the same molecule, the pest or weed control at 16 g/ha ([9]; 16 g ai/ha) was 5%, the pest or weed control at 31 g/ha ([9]; 31 g ai/ha) was 5% and the pest or weed control at 62 g/ha ([9]; 62 g ai/ha) was 10%. The pest or weed control at 125 g/ha ([9]; 125 g ai/ha) was 10%, the pest or weed control at 16 g/ha (kochia (Kochia scoparia); 16 g ai/ha) was 60% and the pest or weed control at 31 g/ha (kochia (Kochia scoparia); 31 g ai/ha) was 60%. The pest or weed control at 62 g/ha (kochia (Kochia scoparia); 62 g ai/ha) was 90%, the pest or weed control at 125 g/ha (kochia (Kochia scoparia); 125 g ai/ha) was 90% and the pest or weed control at 16 g/ha ([10]; 16 g ai/ha) was 55%. For the same molecule, the pest or weed control at 31 g/ha ([10]; 31 g ai/ha) was 75%, the pest or weed control at 62 g/ha ([10]; 62 g ai/ha) was 70% and the pest or weed control at 125 g/ha ([10]; 125 g ai/ha) was 80%. For the same molecule, the pest or weed control at 16 g/ha ([11]; 16 g ai/ha) was 0%, the pest or weed control at 31 g/ha ([11]; 31 g ai/ha) was 0% and the pest or weed control at 62 g/ha ([11]; 62 g ai/ha) was 5%. It also gave a pest or weed control at 125 g/ha ([11]; 125 g ai/ha) of 5%, a pest or weed control at 31 g/ha ([12]; 31 g ai/ha) of 95% and a pest or weed control at 62 g/ha ([12]; 62 g ai/ha) of 90%. The pest or weed control at 125 g/ha ([12]; 125 g ai/ha) was 95%, the plant injury at 31 g/ha ([13]; 31 g ai/ha) was 50% and the plant injury at 62 g/ha ([13]; 62 g ai/ha) was 70%. For the same molecule, the plant injury at 125 g/ha ([13]; 125 g ai/ha) was 70%, the pest or weed control at 31 g/ha ([14]; 31 g ai/ha) was 80% and the pest or weed control at 62 g/ha ([14]; 62 g ai/ha) was 90%. The pest or weed control at 125 g/ha ([14]; 125 g ai/ha) was 90%, the pest or weed control at 31 g/ha ([15]; 31 g ai/ha) was 50% and the pest or weed control at 62 g/ha ([15]; 62 g ai/ha) was 60%. It also gave a pest or weed control at 125 g/ha ([15]; 125 g ai/ha) of 60%, a plant injury at 31 g/ha (soybean (Glycine max); 31 g ai/ha) of 70% and a plant injury at 62 g/ha (soybean (Glycine max); 62 g ai/ha) of 85%. For the same molecule, the plant injury at 125 g/ha (soybean (Glycine max); 125 g ai/ha) was 40%, the pest or weed control at 31 g/ha ([16]; 31 g ai/ha) was 60% and the pest or weed control at 62 g/ha ([16]; 62 g ai/ha) was 60%. For the same molecule, the pest or weed control at 125 g/ha ([16]; 125 g ai/ha) was 65%, the pest or weed control at 31 g/ha ([17]; 31 g ai/ha) was 70% and the pest or weed control at 62 g/ha ([17]; 62 g ai/ha) was 80%. For the same molecule, the pest or weed control at 125 g/ha ([17]; 125 g ai/ha) was 90%, the plant injury at 31 g/ha ([18]; 31 g ai/ha) was 0% and the plant injury at 62 g/ha ([18]; 62 g ai/ha) was 0%. For the same molecule, the plant injury at 125 g/ha ([18]; 125 g ai/ha) was 0%, the pest or weed control at 31 g/ha ([19]; 31 g ai/ha) was 10% and the pest or weed control at 62 g/ha ([19]; 62 g ai/ha) was 10%. It also gave a pest or weed control at 125 g/ha ([19]; 125 g ai/ha) of 10%.
